The source of these data is patent publication US20250199015A1, “CYCLIN-DEPENDENT KINASE 2 INHIBITORS FOR MEDICAL TREATMENT” (INCYCLIX BIO, LLC, priority 2022, published 2025).

Each structure is given as a SMILES string.

In data set [1] the test system is pRb (T821, 807/811), CCNE1 in OVCAR-3 cells. Briefly: Western blot pRb and cell cycle proteins. The format is cell-based, human. The protocol:
Cells were plated at 300,000 cells/well in Corning 6 cm tissue culture treated plates. […] Cells were collected by washing each well twice with cold PBS, then scraping cells in the presence of 75 μL cold RIPA with protease and phosphatase inhibitors. Lysates were clarified by centrifugation at 12,000×g for 15 min at 4° C. and supernatants transferred to clean tubes. A BCA assay was performed to determine the protein concentration of each lysate. A total of 25 μg of protein was mixed with sample buffer and reducing agent before being run on a 4-12% SDS-PAGE. Protein was transferred to a nitrocellulose membrane and blocked with LI-COR blocking buffer for 1 hour. Membranes were incubated overnight in primary antibody at 4° C. Following 3 washes with TBS-T, membranes were incubated for 60 minutes in LI-COR secondary antibodies. Following 3 washes in TBS-T, and one TBS wash, membranes were scanned using a LI-COR OdysseyCLx. Image studio was used for image analysis.
The OVCAR-3 human ovarian carcinoma cell line was grown in RPMI-1640/1× Glutamax/1× Insulin/10% fetal bovine serum and was plated at 300,000 cells/well in Corning 6 well tissue culture treated plates. Cells were incubated at 37° C. for 24 hours prior to addition of 2 replicates of 0.1% DMSO control and 1 replicate for each treatment. […] Cells were collected by washing each well twice with cold PBS, then scraping cells in the presence of 150 μL cold RIPA with protease and phosphatase inhibitors. Lysates were clarified by centrifugation at 14,000×g for 10 min at 4° C. and supernatants were transferred to clean tubes. A BCA assay was performed to determine the protein concentration of each lysate. A total of 30 μg of protein was mixed with sample buffer and reducing agent before being run on a 4-12% SDS-PAGE. Protein was transferred to a nitrocellulose membrane and blocked with LI-COR blocking buffer for 1 hour. Membranes were incubated overnight in primary antibody at 4° C. Following 3 washes with TBS-T, membranes were incubated for 45 minutes in LI-COR secondary antibodies. […]

The subject of a further data set is pRb in Kuramochi cells. Briefly: Western blot pRb. As to conditions: 30-1000 nM, 24 hours. The format is cell-based, human. The protocol: An independent human ovarian carcinoma cell line, Kuramochi human ovarian carcinoma, was grown in RPMI-1640/1× Glutamax/10% fetal bovine serum and was plated at 300,000 cells/well in Corning 6 well tissue culture treated plates. Cells were incubated at 37° C. for 24 hours prior to addition of 2 replicates of 0.1% DMSO control and 1 replicate for each treatment. […] Cells were collected by washing each well twice with cold PBS, then scraping cells in the presence of 150 μL cold RIPA with protease and phosphatase inhibitors. Lysates were clarified by centrifugation at 14 kxg for 10 min at 4° C. and supernatants transferred to clean tubes. A BCA assay was performed to determine the protein concentration of each lysate. 30 μg of protein was mixed with sample buffer and reducing agent before being run on a 4-12% SDS-PAGE. Protein was transferred to a nitrocellulose membrane and blocked with LI-COR blocking buffer for 1 hour. Membranes were incubated overnight in primary antibody at 4° C. Following 3 washes with TBST, membranes were incubated for 45 minutes in LI-COR secondary antibodies. Following 2 washes in TBST, and one TBS wash, membranes were scanned using a LI-COR OdysseyCLx. Image studio was used for image analysis.

Data set [2] in a line: Mouse hollow fiber assay, animal weight. Type of data set: in vivo, mice. The settings on record: 75, 100, 150 mg/kg twice daily. Here is the method:
The mouse hollow fiber assay was conducted using three tumor cell lines, OVCAR-3 (ovarian), MKN-1 (gastric), and HCC-1569 (breast), 1e7 OVCAR-3, 5e6 MKN-1, and 1e7 HCC-1569 cells were loaded into Hollow Fibers, placed in cell culture dishes containing RPMI-1640 with 20% FCS and 1% penicillin/streptomycin, and were equilibrated in an incubator at 37 C, 5% CO2 overnight. On Day 0, three fibers were implanted in two different compartments: subcutaneous and intraperitoneal of twenty-four female NMRI nude mice ages 4-5 weeks. […] Female NMRI nude mice were implanted both subcutaneously and intraperitoneally with HCC-1569, MKN1, and OVCAR3 tumor cell-loaded Hollow Fibers on Day 0. The number of animals alive on Day 0 (implantation) and on Day 16 (necropsy) in each group is shown in parentheses in the legend.

The next data set deals with CYP3A4 transcription. Put plainly: CYP induction (transcription). Type of data set: in vitro ADME. The settings on record: up to 3 μM, 24 hours.
The test system of data set [3] is SA-beta galactosidase in LYR and LYFR cells. Put plainly: Senescence-associated beta-galactosidase staining. The format is cell-based. The settings on record: with abemaciclib and/or fulvestrant, 5 days. Here is the method:
Briefly, cells were plated at low density and treated with the agents described for 5 days. A senescence detection kit was used to stain for SA-beta galactosidase (FIG. 148A-148D).

For `NS(=O)(=O)c1ccc(Nc2ncc3cc4n(c3n2)C2(CCCCC2)C(=O)NN4)cc1` [Compound I], in data set [1] (300 nM, 1-24 hours), the “pRb levels over time” value is on record as “time-dependent decrease in pRb levels”. The “cyclin E1 (CCNE1) levels” value in data set [1] (30-1000 nM, 24 hours) is listed as “levels were increased”. Further, the pRb levels result in data set [1] (30-1000 nM, 24 hours) is “dose-dependent decrease in pRb levels”; in the data set on pRb in Kuramochi cells it was “decreases pRb levels in a dose-dependent manner”. Moreover, the animal weight entry in data set [2] is on record as “No animal weight changes were observed”. In addition, in the data set with CYP3A4 transcription, the “induction of CYP3A4 transcription” value was “no observed induction”. Also, in data set [3], the beta galactosidase staining entry was “significantly increased beta galactosidase staining”.
